Test results taken from ChEMBL document CHEMBL1932963, “Mitochondrial targeting of a cationic amphiphilic polyproline helix” (Bioorg Med Chem Lett, 2012).

What was measured:
HeLa [1] = experiment: Cellular uptake in human HeLa cells after 4 hrs by flow cytometry; assay type: ADME, cell-based
HeLa [2] = experiment: Cellular uptake in human HeLa cells at 5 uM after 4 hrs by flow cytometry relative control; assay type: ADME, cell-based
[3] = Cellular uptake in human HeLa cell lysosomes using LysoTracker dye at 1 uM after 4 hrs; assay type: ADME, cell-based, Lysosome
[4] = Cellular uptake in human HeLa cell mitochondria using mitotracker dye at 1 uM after 4 hrs; assay type: ADME
[5] = Cellular uptake in human HeLa cell mitochondria using mitotracker dye at 5 uM after 4 hrs; assay type: ADME
[6] = Cellular uptake in human HeLa cell mitochondria using mitotracker dye at 5 uM after 30 mins; assay type: ADME; settings: 0.5 h
[7] = Cellular uptake in human HeLa cell mitochondria using mitotracker dye at 5 uM after 1 hr by confocal microscopy in presence of FCCP; assay type: ADME
[8] = Cellular uptake in human HeLa cell lysosomes using LysoTracker dye at 5 uM after 1 hr by confocal microscopy in presence of FCCP; assay type: ADME, cell-based, Lysosome
[9] = Cellular uptake in human HeLa cell cytosol at 5 uM after 1 hr by confocal microscopy in presence of FCCP; assay type: ADME, cell-based
HeLa [10] = experiment: Cellular uptake in human HeLa cells assessed as increase in cellular fluorescence at 5 uM after 4 hrs by flow cytometry relative to control; assay type: ADME, cell-based
HeLa [11] = experiment: Cellular uptake in human HeLa cells up to 2.5 uM after 4 hrs by flow cytometry; assay type: ADME, cell-based

| Drug uptake (HeLa [1]) | Ratio (HeLa [2]) | Drug uptake [3] | Drug uptake [4] | Drug uptake [5] | Drug uptake [6] | Drug uptake [7] | Drug uptake [8] | Drug uptake [9] | Ratio (HeLa [10]) | Drug uptake (HeLa [11]) | Structure (SMILES) |
| --- | --- | --- | --- | --- | --- | --- | --- | --- | --- | --- | --- |
| Dose-dependent effect | 7.5 | Active | Active | Active | Active | Not Active | Active | Active | 14 | – | CC(C)CO[C@H]1C[C@H](C(=O)N2C[C@@H](OCCCNC(=N)N)C[C@@H]2C(=O)N2C[C@@H](OCCCNC(=N)N)C[C@@H]2C(=O)N2C[C@@H](OCC(C)C)C[C@@H]2C(=O)N2C[C@@H](OCCCNC(=N)N)C[C@@H]2C(=O)N2C[C@@H](OCCCNC(=N)N)C[C@@H]2C(=O)N2C[C@@H](OCC(C)C)C[C@@H]2C(N)=O)N(C[C@H]2C[C@H](OCCCNC(=N)N)CN2C(=O)[C@H]2C[C@H](OCCCNC(=N)N)CN2C(=O)[C@H]2C[C@H](OCC(C)C)CN2C(=O)[C@H]2C[C@H](OCCCNC(=N)N)CN2C(=O)[C@H]2C[C@H](OCCCNC(=N)N)CN2C(=O)[C@H]2C[C@H](OCC(C)C)CN2C(=O)CNC(=O)c2cccc(-c3c4ccc(=O)cc-4oc4cc(O)ccc34)c2C(=O)O)C1 |
| – | – | – | – | – | – | – | – | – | – | Not Active | N=C(N)NCCC[C@H](NC(=O)[C@H](CCCNC(=N)N)NC(=O)[C@H](CCCNC(=N)N)NC(=O)[C@H](CCC(N)=O)NC(=O)[C@H](CCCNC(=N)N)NC(=O)[C@H](CCCNC(=N)N)NC(=O)[C@H](CCCCN)NC(=O)[C@H](CCCCN)NC(=O)[C@H](CCCNC(=N)N)NC(=O)CNC(=O)[C@H](Cc1ccc(O)cc1)NC(=O)c1ccccc1-c1c2ccc(=O)cc-2oc2cc(O)ccc12)C(N)=O |
